How the values were obtained:
[1] = tested on: human iPS cells (200-9 cells, TIG3/KOSM cells, 253G1 cells); assay: Differentiation induction of human iPS cells into pancreatic hormone-producing cells (1), immunostaining; assay type: cell-based; conditions: 3 nM betagenin in step (D2), vs DMSO control, FIG. 3
Excerpt: As human iPS cells, used were 253G1 cells purchased from the cell bank at RIKEN, TIG3/KOSM cells provided by Dr. Mitani at Saitama Medical University, 200-9 cells, a clone in which a reporter gene is introduced into TIG3/KOSM cells. TIG3/KOSM cells were established at The National Institute of Advanced Industrial Science and Technology by introducing 4 factors (the OCT gene, the KLF gene, the SOX gene, the MYC gene) into TIG-3 cells using Sendai virus (Nishimura, K. et al., J. Biol. Chem., 286, pp. 4760-4771 (2011)).
These cells were cultured/maintained in an ES cell culture medium (DMEM/ham F12, 20% KSR, nonessential amino acid, 2 mM L-glutamine, 0.1 mM 2-mercaptoethanol, 5.2 mM NaOH) with added 4 ng/mL FGF-2 (Global Stem) and penicillin/streptomycin (Nacalai Tesque, Inc.) along with SNL76/7 cells (DS Pharma Biomedical) treated with mitomycin-C. CTK (0.25% trypsin, 1 mg/mL collagenase IV, 20% KSR, 1 mM CaCl2 in PBS) was used for cell detachment, and diluted at a ratio of 1:3 to 1:4 to perform passage culture.
Cells were detached with trypsin-EDTA 3 days before the start of differentiation induction, and plated at a cell density of 6.3×10^4 cells/cm2, and cultured for 1 day in an ES cell culture medium with added 10 μM Y-27632 (Wako), 4 ng/mL FGF-2 and penicillin/streptomycin along with STO cells treated with mitomycin-C. Subsequently, they were further cultured for 2 days in an ES cell culture medium with added 4 ng/mL FGF-2 and penicillin/streptomycin.
On the first day of the start of differentiation induction, the culture medium was replaced with a RPMI1640 culture medium (Nacalai Tesque, Inc.) with added 2% (v/v) FBS, 100 ng/mL activin A (SBI) and 3 μM CHIR99021 (Axon Medchem), and cultured for 1 day (Step (A2)).
Subsequently, the culture medium was replaced with a RPMI1640 culture medium with added 2% (v/v) FBS and 100 ng/mL activin A, and cultured for 2 days (Step (B2)). […]
Then, the proportion (%) of C-peptide positive cells or insulin positive cells was determined using an image analyzer CellInsight (Thermo Fisher Scientific).

[2] = tested on: MIN6 cells (pancreatic β cell line); assay: EdU cell proliferation assay, growth promotion of pancreatic β cells (2), versus culture supernatants; assay type: cell-based; conditions: betagenin 1 nM, compared with IBCAP culture supernatant and Mock culture supernatant (0.5 μL/well), Mock taken as 1.0, FIG. 4
Method: MIN6 cells provided by Dr. Miyazaki at Osaka University were used as a pancreatic β cell line. MIN6 cells were maintained in a DMEM culture medium with added 15% (v/v) of FBS.
A DMSO solution was prepared so that the concentration of chemically synthesized betagenin was 97% of purity, as a pancreatic hormone-producing cell growth-promoting agent.
First, HEK293T cells passaged in a DMEM culture medium with added 5% FBS and antibiotics (penicillin 100 U/mL, streptomycin […]) were plated on a 10 cm dish at 1×10^6 cells. On the next day, HEK293T cells were transfected with an expression vector (pCAGGS-IBCAP) constructed by ligating the gene encoding the IBCAP (=Betagenin) set forth in SEQ ID NO: 2 (which is corresponds to human TM4SF20, and hereinafter referred to “IBCAP.”) using FuGEN6 (Roche) to overexpression of IBCAP. The culture medium was replaced with an Opti-MEM culture medium 24 hours after that, and a culture supernatant was then collected another 24 hours after that, which was then used as an IBCAP culture supernatant for the subsequent experiments. […]
The incorporated EdU was visualized as red fluorescence using Alexa Flour™ 594, and observed with a fluorescence microscope (Carl Zeiss).

## betagenin: chemically synthesized peptide of SEQ ID NO: 1, fragment of human TM4SF20 from Position 170 to Position 229 (WRASSFHFDSEENKHRLIHFSVFLGLLLVGILEVLFGLSQIVIGFLGCLCGVSKRRSQIV; Peptide Sequence betagenin; listed as Homo sapiens)
[1]; 200-9 cells
  proportion of C-peptide positive cells or insulin positive cells: increased
[1]; 253G1 cells
  proportion of C-peptide positive cells or insulin positive cells: increased
[1]; TIG3/KOSM cells
  proportion of C-peptide positive cells or insulin positive cells: increased
[2]
  relative EdU fluorescence intensity: significantly increased

— patent US9856304B2, “Peptide and application thereof” (Saitama Medical University, priority 2013, dated 2018)
